According to patent publication US20230123334A1, “AMINO LIPID COMPOUND, PREPARATION METHOD THEREFOR, AND APPLICATION THEREOF” (SHENZHEN SHENXIN BIOTECHNOLOGY CO., LTD., priority 2020, published 2023):

How the values were obtained:
Type in all cases: cell-based
HEK293 cells [1] = assay: Preliminary screening as mRNA vectors, EGFP mRNA transfection of HEK293 cells; settings: HEK293 cells, 96-well plates, EGFP mRNA 50 ng per well; percentage of GFP fluorescent cells relative to total number of cells (Hoechst)
Method in brief: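 Each well of HEK293 cells received 50 ng of EGFP mRNA. Efficiency was expressed as percent GFP-expressing cells over Hoechst-defined total cell number.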

HEK293 cells [2] = assay: Preliminary screening as DNA vectors, GFP transfection of HEK293 cells; settings: HEK293 cells; lipid/DOPE liposome with 75 ng plasmid DNA (psin-EGFP-IRES-Puro); number of cells expressing GFP divided by total number of nuclei (Hoechst)
Method in brief: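 Lipid + DOPE liposomes (NaOAc, pH 5.6) complexed w/ 75 ng psin-EGFP-IRES-Puro, 30 min RT; added to 3-5×10^4 HEK293/well, 37° C. Hoechst 0.2 μg/mL at 20-24 h, imaged after further 20-24 h. Efficiency = GFP+ cells / total nuclei.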

[3] = test system: embryonic stem cells (hESC2); assay: Screening as mRNA vectors in embryonic stem cells; settings: 50 ng EGFP mRNA per well
Method in brief: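 EGFP mRNA (50 ng per well) transfected into hESC2 cells grown in mTeSR1; Lipofectamine Stem served as positive control. Read-out: GFP-fluorescent cells as percentage of total cells.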

MCF7 cells [4] = assay: Transfection of MCF7 cell line, DNA vectors; parameters: concentration or dose not given beside the values; settings: plasmid DNA, GFP cells / total cells
Method in brief: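 MCF7 cells in DMEM with fetal bovine serum were transfected in 96-well format. Read-out was the percentage of GFP-fluorescent cells among total cells counted by Hoechst nuclear stain. Lipofectamine2000 served as positive control.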

Hela cells [5] = assay: Transfection of Hela cell line, mRNA vectors; settings: 50 ng EGFP mRNA per well
Method in brief: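 HeLa cells in DMEM with 10% FBS transfected with 50 ng EGFP mRNA per well. Readout is percentage of GFP-positive cells among total cells counted by Hoechst nuclear stain; Lipofectamine2000 served as positive control.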

MCF7 cells [6] = assay: Transfection of MCF7 cell line, mRNA vectors; settings: 50 ng EGFP mRNA per well
Method in brief: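 MCF7 cells in DMEM with fetal bovine serum were transfected with 50 ng EGFP mRNA per well. Read-out was the percentage of GFP-positive cells among total Hoechst-stained nuclei, with Lipofectamine2000 as positive control.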

cardiomyocytes [7] = assay: Screening as mRNA vectors in cardiomyocytes; settings: 50 ng EGFP mRNA per well
Method in brief: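 Cardiomyocytes differentiated from hESC, in DMEM with 10% FBS, were transfected with 50 ng EGFP mRNA per well. The read-out was GFP-positive cells as a percentage of Hoechst-stained nuclei, with Lipofectamine Stem as positive control.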

cardiomyocytes [8] = assay: Screening as DNA vectors in cardiomyocytes; parameters: concentration or dose not given beside the values; settings: method as Example 4
Method in brief: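 hESC-derived cardiomyocytes in DMEM with 10% FBS were transfected with a GFP DNA vector; Lipofectamine Stem served as positive control. Read-out: percentage of GFP-positive cells relative to total cells counted by Hoechst nuclear stain.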

[9] = test system: embryonic stem cells (hESC2); assay: Screening as DNA vectors in embryonic stem cells, flow cytometry; settings: 75 ng plasmid DNA, 48 hours after transfection, flow cytometer
Method in brief: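 hESC2 cells in mTeSR1 on matrigel transfected with 75 ng pSin-EGFP-IRES-Puro complexed with amino lipid/DOPE liposomes formed in sodium acetate pH 5.6; 37 °C, 5% CO2. After 48 h, GFP-positive cells counted by flow cytometry (≥2000 cells), efficiency also expressed relative to Lipofectamine Stem.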

Hela cells [10] = assay: Transfection of Hela cell line, DNA vectors; settings: 75 ng plasmid DNA, GFP cells / total cells
Method in brief: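 Amino lipid/DOPE liposomes in sodium acetate pH 5.6 were complexed with 75 ng psin-EGFP-IRES-Puro plasmid for 30 min at room temperature, then mixed with 3-5×10^4 Hela cells in DMEM/10% FBS at 37° C. Hoechst stain after 20-24 h, imaging after a further 20-24 h. Efficiency = GFP-positive cells / total nuclei.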

Compound | Absolute mRNA transfection efficiency in HEK293 cells (HEK293 cells [1]) | Absolute DNA transfection efficiency in HEK293 cells (HEK293 cells [2]) | Absolute mRNA transfection efficiency in embryonic stem cells [3] | Absolute DNA transfection efficiency in MCF7 cells (MCF7 cells [4]) | Absolute mRNA transfection efficiency in Hela cells (Hela cells [5]) | Absolute mRNA transfection efficiency in MCF7 cells (MCF7 cells [6]) | Absolute mRNA transfection efficiency in cardiomyocytes (cardiomyocytes [7]) | Absolute DNA transfection efficiency in cardiomyocytes (cardiomyocytes [8]) | Absolute DNA transfection efficiency in embryonic stem cells [9] | Absolute DNA transfection efficiency in Hela cells (Hela cells [10])
CCCCCCCCCCCCSc1nc(NCCN2CCCC2)nc(SCCCCCCCCC)n1 [Compound S9S12D3] | 5.3% | 4.9% | 21.4% | 3.0% | 2.4% | 6.5% | 65.7% | 2.7% | 5.3% | 2.4%
CCCCCCCCCCCCSc1nc(NCCN2CCN(C)CC2)nc(SCCCCCCCCC)n1 [Compound S9S12D5] | 57.5% | 21.0% | 27.3% | 32.0% | 10.8% | 27.3% | 1.2% | 1.7% | 4.6% | 10.8%
CCCCCCCCCCCCSc1nc(NCCCN(C)C)nc(SCCCCCCCCC)n1 [Compound S9S12D6] | 61.6% | 20.2% | 9.3% | 34.2% | 10.9% | 50.4% | 9.5% | 3.3% | 10.5% | 10.9%
CCCCCCCCCCCCSc1nc(NCCCN2CCOCC2)nc(SCCCCCCCCC)n1 [Compound S9S12D8] | 13.8% | 30.4% | 1.7% | 7.7% | 15.8% | 12.6% | 0.9% | 5.8% | 11.1% | 15.8%
CCCCCCCCCCCSc1nc(NCCCCCCCC)nc(NCCCN(C)C)n1 [Compound S11N8D6] | – | – | 2.0% | 9.3% | 18.4% | 11.0% | 7.9% | 6.7% | 1.7% | 18.4%
CCCCCCCCCCCSc1nc(NCCCCCCCC)nc(NCCCN2CCOCC2)n1 [Compound S11N8D8] | – | – | 1.3% | 0.1% | 6.1% | 7.8% | 0.9% | 1.2% | 0.0% | 6.1%
CCCCCCCCCCCSc1nc(NCCCCCCCC)nc(NCCCN2CCN(C)CC2)n1 [Compound S11N8D9] | – | – | 34.8% | 20.9% | 11.9% | 42.3% | 25.8% | 0.1% | 3.6% | 11.7%
CCCCCCCCCCCSc1nc(NCCCCCCCC)nc(NCC2CCN(C)CC2)n1 [Compound S11N8D10] | – | – | 35.4% | 25.6% | 16.7% | 38.9% | 41.7% | 6.6% | 12.6% | 16.7%
CCCCCCCCCCCSc1nc(NCCCCCCCCC)nc(NCCN2CCCC2)n1 [Compound S11N9D3] | – | – | 22.0% | 13.6% | 11.5% | 26.6% | 8.3% | 0.3% | 3.7% | 11.5%
CCCCCCCCCCCSc1nc(NCCCCCCCCC)nc(NCCN2CCN(C)CC2)n1 [Compound S11N9D5] | – | – | 24.9% | 23.1% | 10.6% | 17.8% | 30.7% | 19.7% | 0.5% | 10.6%
CCCCCCCCCCCSc1nc(NCCCCCCCCC)nc(NCCCN(C)C)n1 [Compound S11N9D6] | – | – | 0.7% | 25.1% | 20.3% | 32.6% | 8.7% | 22.5% | 1.0% | 20.3%
CCCCCCCCCCCSc1nc(NCCCCCCCCC)nc(NCCCN2CCOCC2)n1 [Compound S11N9D8] | – | – | 3.2% | 0.9% | 4.3% | 13.1% | 2.6% | 1.7% | 0.8% | 4.3%
CCCCCCCCCCCSc1nc(NCCCCCCCCC)nc(NCCCN2CCN(C)CC2)n1 [Compound S11N9D9] | – | – | 33.5% | 33.5% | 11.8% | 27.3% | 21.0% | 0.3% | 1.4% | 11.8%
CCCCCCCCCCCSc1nc(NCCCCCCCCC)nc(NCC2CCN(C)CC2)n1 [Compound S11N9D10] | – | – | 39.3% | 48.7% | 16.2% | 36.6% | 29.6% | 16.4% | 0.5% | 16.2%
